The subject of data set [1] is stored human platelets in thrombocytopenic CD-1 outbred mice. The data set is described as follows: Platelet storage vs platelet function in a mouse model of thrombocytopenia (tail vein bleeding, blotter weight). The class given is in vivo. The following applies: for Weight of blood after tail vein cut, single animals: 1% PEG-400 in PBS, platelets stored at room temp. The procedure:
Fresh human platelets were obtained from the blood bank. These were pooled, mixed and divided twice to give 4 (new) platelet bags with 65 ml (+/−5 ml) in each. Next sterile PBS/PEG mixtures were made by adding filter sterilized PEG-400 (30% in PBS) serially diluting 1:4. (14 ml PBS+6 ml of PEG400=30% PEG, serially 1:4 diluted with PBS to give 7.5% PEG400, and 1.9% PEG400). Then, 10 ml of PBS or PBS/PEG was added into each platelet bag as follows: 10 ml PBS is 0 control=A; 10 ml of 1.9 is 0.25% peg final in platelets (a low dose tolerated by whole animal see below)=B; 10 ml of 7.5% gives 1% PEG-400 final (the max PEG400 dose tolerated by whole animal see below), =C; 10 ml of 30% gives 4% about 4 times the max dose tolerated in rhesus monkeys. Units were held at room temp 70 cycles/min, 1 inch stroke). The platelet units were confirmed to be negative for bacterial growth using 3 ml the platelet suspensions in Bactec blood culture bottles at 72 hr.
CD-1 outbred mice were obtained from Harlan Laboratories. All animals were pretreated with a 0.5 ml IP dose of 185 ug/mouse of filter sterilized fresh acetylsalicylic acid (aspirin) in PBS buffer. Fresh aspirin was used. Salicylate is the active metabolite responsible for most anti-inflammatory and analgesic effects; however, acetylsalicylate is the active moiety for the antiplatelet-aggregation effect and is rapidly hydrolyzed in water. On the following day all mice were given 3 U (heparin equivalents)/animal Lovenox (Enoxaparin Sodium Injection). After a 2 hr period for Lovenox to take full effect, the animals were given 100 ul platelets by IV tail vein injection, the platelets were allowed to circulate […] and the tail vein cut 1 cm from the tip with a new scapula for each animal. Bleeding was measured by collecting drops of blood for exactly 5 min on pre-weighed blotter paper Whatmen-40. The blotters were then weighed and these weights were compared using unpaired t test statistics. Platelets having an excessive amount of RBC in the units were sedimented under gravity in a 50 ml tube for 30 min and only the top 5 ml was harvested into a second 50 ml tube used for injection.)
Briefly, the animal model experiments were performed as follows. Fresh human platelets were obtained from a blood bank, consisting of 3 ABO ‘O’ units and 2 ABO ‘A’ units. These were pooled, mixed and divided twice to give 4 (new) platelet bags with 75 ml (+/−5 ml) in each. Next sterile PBS/PEG mixtures were made by adding filter sterilized PEG-400 (30% in PBS) serially diluting 1:4. (14 ml PBS+6 ml of PEG=30% PEG, serial ¼ diluted with PBS to give 7.5% PEG, and 1.9% PEG400). 10 ml of PBS or PBS/PEG was then added to each platelet bag as follows. […] Units were held at room temp 140 cycles/min, 0.5 inch stroke). The platelet units were confirmed as negative for bacterial growth using 3 ml in Bactec blood culture bottles at 72 hr.
CD-1 outbred mice were obtained from Harlan Laboratories. All animals were pretreated with a 0.5 ml IP dose of 185 μg/mouse of filter sterilized fresh acetylsalicylic acid in PBS buffer. On the following day all mice were given 3 U (heparin equivalents)/animal Lovenox. (Note: Aspirin was fresh. Salicylate is the active metabolite responsible for most anti-inflammatory and analgesic effects; however, acetylsalicylate is the active moiety for the antiplatelet-aggregation effect and is rapidly hydrolyzed in water. After a 2 hr period for Lovenox effect the animals were given 100 ul platelets by IV tail vein injection, the platelets were allowed to circulate 30 min and the tail vein cut 1 cm from tip with a new scapula for each animal. Bleeding was measured by collecting drops of blood for exactly 5 min on pre-weighed blotter paper Whatmen-40. The blotters were then weighed and these weights were compared using unpaired t test statistics. […]

For data set [2] the following is noted: dogs; cited from earlier work.

“And” between values parts separate entries of the source, which are not always exact repeats. Equal values may be shown once.

As for Polyethylene glycol [PEG-400], the “Weight of blood after tail vein cut, mean (X) of combined data” value in data set [1] (1% PEG-400, room temp. storage 11-13 days, N = 9) is reported as “X = 0.043 grams”. Besides, in data set [1] (1% PEG-400, room temp. storage, day 11-13), the “activity of stored platelets” value was “active”. In addition, in data set [1] (1% PEG-400, room temp., combined day 11 and day 13 data), the “clotting vs standard platelet storage condition” value is recorded as “significantly more clotting”. Further, the “Weight of blood after tail vein cut, single animals” value is “.06 grams and .04 grams and .05 grams” in data set [1] (Mar. 11, 2014 group); “.05 grams and .03 grams and .02 grams” in data set [1] (Mar. 13, 2014 group); “.04 grams (2×) and .06 grams” in data set [1] (May 23, 2014 group). For the same substance, in data set [2], the toxic endpoint is approximately 8 g/kg. Also, the “toxic endpoint for the whole animal” value in data set [2] was 0.8%.

Values taken from patent publication US10897891B2, “Compositions and methods for prolonged cell storage” (Board of Regents, The University of Texas System, priority 2015, dated 2021).
